Results on one molecule are retold here after patent publication US20210093558A1 (Bryn Pharma, LLC, priority 2018, published 2021).

The structures appear in SMILES notation.

This assay concerns histamine induced nasal congestion.

For the molecule `NCCc1c[nH]cn1` [Histamine, histamine], the “induction of nasal congestion” value (5% histamine aerosol for 5 minutes) is “induced congestion in all animals to varying degrees”. Besides, the “nasal congestion and flow restriction pressure” value (5 and 10 minutes post-histamine exposure, Group 1) was “progressive increase in nasal congestion and flow restriction pressure”. The “histamine induced congestion without epinephrine” value (pilot study, 60, 80 and 100 minute time points) is given as “remains elevated at significant levels”.
